Test results from patent US10617679B2, “Deuterated compounds and medical uses thereof” (JINGLUWEIDAI INFORMATION CONSULTING SERVICE (BEIJING) CO. …, priority 2016, dated 2020).

Tests used:
rat formalin model = assay: Analgesic effects of intragastric administration in a rat formalin model; type: in vivo, SD rats; conditions: mean ± SD; for Reaction time for phase I: licking time 0-5 min after formalin; for Reaction time for Phase II: licking time 15-30 min after formalin
Description: SD rats (male, weight 160-180 g) were randomly divided into groups with 6 rats in each group. After the rats were intragastrically administered different doses separately, they were placed in PVC observation boxes for habituation. After 30 min, the rats were injected subcutaneously with 20 μL of 2.7% formalin solution into the plantar surface of the left hind paws, and quickly put back in the PVC observation boxes for observation. The length of time the rats spent licking the injected-formalin paws at the early response (0-5 min, phase I) and the late response (15-30 min, Phase II) was recorded, and the analgesic activities of the test compounds were evaluated according to the length of time the rats spent licking during the period of observation. The experimental data were expressed as mean±standard deviation. The shorter the licking time, the better the analgesic effect of the compound.

[1] = tested on: rat chronic sciatic nerve compression neuralgia model; assay: Analgesic effects of intragastric administration in a rat chronic sciatic nerve compression neuralgia model; type: in vivo, SD rats; conditions: pain threshold 1 hour after administration
Description: SD rats (male, weight 160-180 g) were anesthetized using sodium pentobarbital (40 mg/kg), of which the sciatic nerves were separated in the middle segment of the right hind limbs. In the anterior segment of the sciatic nerve to be bifurcated, the sciatic nerve was separated from the surrounding tissue using a sterile glass hook. Four rings were loosely ligated with sterile chrome gut (No. 4, 0.15 mm in diameter) by an interval of 1 to 2 mm. Topically sprinkled with penicillin powder. The muscle tissue and skin were sutured. The rats were placed in a cage with cork dust. In the sham surgery group, the sciatic nerve was only exposed, and the other treatments were the same as described above. The rats after surgery were placed in a metal cage. […] The weight of the filament was recorded and set to be the threshold (in g). Meanwhile, the number of foot-lifting response to the 10 stimulations of the fiber filaments of different weights was recorded, and the highest threshold was set at 26 g.
5-6 rats in each group were intragastrically administered and the pain thresholds were measured 1 hour after administration. Statistical analysis of the thresholds was performed using non-parametric Wilcoxon 2-Sample Test and Kruskal-Wallis Test, and the data was analyzed with SASS data processing software. Analgesic percent (%)=(pain threshold after drug treatment−pain threshold before drug treatment)/(maximal analgesia threshold−pain threshold before drug treatment)[…].

[2] = tested on: oxycodone-induced place preference in rats; assay: Inhibition of oxycodone-induced place preference in rats; type: in vivo, SD rats; conditions: day 10, within 15 minutes
Description: SD rats (male, weight 160-180 g) were placed in conditioned place preference (CPP) training boxes, where the partition door between the boxes was open. Time the rats spent in each of the boxes was recorded within 15 min in order to determine the natural tendency of the rats. The rats were then randomly divided into groups with 10 rats in each group according to the amount of time spent in the white box. The white box was a drug box, and the black box was a box with the absence of the drug. After intragastric administration with a test compound for 40 minutes, the rats were injected subcutaneously with oxycodone (2.5 mg/kg, s.c.) or saline, and immediately placed in the white box or the black box to be trained for 45 minutes, once a day for 9 consecutive days. On the 10th day, the rats were placed in the training boxes with the partition door open. The time the rats spent in the white box was recorded within 15 minutes to evaluate effects on place preference in the rats.

blood pressure in rats = assay: Effects on blood pressure in rats; type: in vivo, SD rats
Description: (§1) SD rats (male, weight 160-180 g) were fasted for 12 hours before administration but had free access to drinking water. The rats were randomly divided into groups. They were anesthetized with an intraperitoneal injection of 50-60 mg/kg dose of sodium pentobarbital. Each rat was fixed on the back on the surgical table. The skin was cut from the center of the neck, and an incision of about 2.5 cm was made. The subcutaneous tissue and the median muscle were separated; the trachea was fully exposed; and the endotracheal intubation was performed. The subcutaneous tissue was separated from front to back on the right side; the right common carotid artery, the vagus nerve and the sympathetic nerve were exposed; and the carotid artery cannulation was performed. Finally, the endotracheal tube and the carotid artery cannula were respectively connected to a respiration transducer and a blood pressure transducer, and then connected to a multifunctional physiological recorder. At 30 minutes after surgery, the rats were intragastrically administrated. Heart rate and blood pressure were measured at different time points after administration.

heart rate in rats = assay: Effects on heart rate in rats; type: in vivo, SD rats
Description: as §1

Wistar rats = assay: Evaluation of subacute toxicity (14 days, intragastric); type: in vivo; conditions: 40 mg/kg intragastric once a day for 14 days; for ALT / AST: rat
Description: Male Wistar rats were randomly divided into groups with 10 rats in each group and weighed. A certain concentration of a test sample was ground and suspended in a 0.5% sodium carboxymethyl cellulose solution. The sodium carboxymethyl cellulose suspension containing 40 mg/kg of the test compound and a blank sodium carboxymethyl cellulose suspension as a control were intragastrically administered, once a day for 14 consecutive days. After the last administration, the rats were fasted but had free access to drinking water for 12 hours, and then anesthetized. Their blood samples were obtained from the abdominal aortas. According to SOPB093 “Standard Operating Procedures for Serum Preparation” in National Beijing Center for Drug Safety Evaluation and Research, serum was prepared for the determination of blood biochemical and immunological indicators; according to SOPB032 “Preparation of vacuum tubes with EDTA anticoagulation”, EDTA anticoagulation was prepared for the general blood routine tests.

[3] = test dose 10 mg/kg intragastric + oxycodone 2.5 mg/kg s.c.
[4] = test dose 20 mg/kg intragastric + oxycodone 2.5 mg/kg s.c.
[5] = 20 mg/kg intragastric, time point 0
[6] = 20 mg/kg intragastric, time point 30
[7] = 20 mg/kg intragastric, time point 60
[8] = 20 mg/kg intragastric, time point 90
[9] = 20 mg/kg intragastric, time point 120
[10] = 20 mg/kg intragastric, time point 180
[11] = 40 mg/kg intragastric, time point 0
[12] = 40 mg/kg intragastric, time point 30
[13] = 40 mg/kg intragastric, time point 60
[14] = 40 mg/kg intragastric, time point 90
[15] = 40 mg/kg intragastric, time point 120
[16] = 40 mg/kg intragastric, time point 180

SMILES	Reaction time for phase I (rat formalin model; 20 mg/kg intragastric) [s]	Reaction time for Phase II (rat formalin model; 20 mg/kg intragastric) [s]	Reaction time for phase I (rat formalin model; 40 mg/kg intragastric) [s]	Reaction time for Phase II (rat formalin model; 40 mg/kg intragastric) [s]	Analgesic percent ([1]; 20 mg/kg intragastric) [%]	Analgesic percent ([1]; 40 mg/kg intragastric) [%]	Time spent in the drug box (Mean ± S) [2, 3] [s]	Time spent in the drug box (Mean ± S) [2, 4] [s]	Blood pressure (blood pressure in rats; [5]) [mmHg]	Blood pressure (blood pressure in rats; [6]) [mmHg]	Blood pressure (blood pressure in rats; [7]) [mmHg]	Blood pressure (blood pressure in rats; [8]) [mmHg]	Blood pressure (blood pressure in rats; [9]) [mmHg]	Blood pressure (blood pressure in rats; [10]) [mmHg]	Blood pressure (blood pressure in rats; [11]) [mmHg]	Blood pressure (blood pressure in rats; [13]) [mmHg]	Blood pressure (blood pressure in rats; [14]) [mmHg]	Blood pressure (blood pressure in rats; [15]) [mmHg]	Blood pressure (blood pressure in rats; [16]) [mmHg]	Heart rate (heart rate in rats; [5]) [BTM]	further results
[2H]C([2H])([2H])Oc1ccc2c(c1OC)CN1CCc3cc(OC)c(OC)cc3[C@@H]1C2 [Formula I2, (13a S)-2,3,9-trimethoxy-10-[(trideutero)-methoxy]-6,8,13,13a-tetrahydro-5H-isoquinolino[2,1-b]isoquinoline]	82.1 ± 16.3	64.5 ± 19.5	41.0 ± 10.7	46.5 ± 16.0	59.00	68.86	193.94 ± 44.3	140.59 ± 28.52	113.1 ± 15.7	113.4 ± 17.3	101.5 ± 27.46	102.25 ± 21.6	113.1 ± 14.2	102.3 ± 7.6	114.6 ± 19.4	82.5 ± 19.8	92.8 ± 18.6	110.5 ± 15.5	100.0 ± 17.8	400.8 ± 32.1	Blood pressure (blood pressure in rats; [12]): 95.5 ± 15.9 mmHg; Heart rate (heart rate in rats; [6]): 378.3 ± 30.3 BTM; Heart rate (heart rate in rats; [7]): 384.6 ± 48.2 BTM; Heart rate (heart rate in rats; [8]): 388.0 ± 21.4 BTM; Heart rate (heart rate in rats; [9]): 402.5 ± 59.3 BTM; Heart rate (heart rate in rats; [10]): 407.0 ± 36.5 BTM; Heart rate (heart rate in rats; [11]): 409.2 ± 41.7 BTM; Heart rate (heart rate in rats; [12]): 390.7 ± 41.7 BTM; Heart rate (heart rate in rats; [13]): 319.7 ± 57.2 BTM; Heart rate (heart rate in rats; [14]): 353.8 ± 66.7 BTM; Heart rate (heart rate in rats; [15]): 378.0 ± 47.6 BTM; Heart rate (heart rate in rats; [16]): 407.0 ± 42.6 BTM; ALT (Wistar rats): 172.8 ± 37.5 U/L; AST (Wistar rats): 195.0 ± 32.1 U/L; histopathological examination of liver (Wistar rats; result in words): vacuolar degeneration of hepatocytes; plasma ALT and AST versus control group (Wistar rats; result in words): significant increase
[2H]C([2H])([2H])Oc1cc2c(cc1OC([2H])([2H])[2H])[C@@H]1Cc3ccc(OC([2H])([2H])[2H])c(OC([2H])([2H])[2H])c3CN1CC2 [Formula I7, (13a S)-2,3,9,10-tetra-[(trideutero)-methoxy]-6,8,13,13a-tetrahydro-5H-isoquinolino[2,1-b]isoquinoline]	45.2 ± 9.9	58.2 ± 12.5	35.7 ± 9.0	35.9 ± 13.6	70.67	73.53	154.32 ± 21.38	135.40 ± 25.09	112.6 ± 27.5	103.4 ± 11.7	104.2 ± 9.8	102.6 ± 7.2	114.1 ± 11.3	135.3 ± 15.6	113.0 ± 11.4	83.5 ± 7.2	82.6 ± 6.5	95.3 ± 9.5	101.8 ± 8.1	401.5 ± 32.1	Heart rate (heart rate in rats; [6]): 380.8 ± 33.4 BTM; Heart rate (heart rate in rats; [7]): 389.5 ± 26.6 BTM; Heart rate (heart rate in rats; [8]): 405.3 ± 31.0 BTM; Heart rate (heart rate in rats; [9]): 391.0 ± 24.9 BTM; Heart rate (heart rate in rats; [10]): 398.5 ± 28.8 BTM; Heart rate (heart rate in rats; [11]): 407.9 ± 29.5 BTM; Heart rate (heart rate in rats; [12]): 366.8 ± 27.7 BTM; Heart rate (heart rate in rats; [13]): 332.6 ± 24.9 BTM; Heart rate (heart rate in rats; [14]): 343.2 ± 21.0 BTM; Heart rate (heart rate in rats; [15]): 356.7 ± 25.8 BTM; Heart rate (heart rate in rats; [16]): 362.0 ± 32.1 BTM; ALT (Wistar rats): 84.5 ± 20.6 U/L; AST (Wistar rats): 143.8 ± 21.0 U/L; plasma ALT and AST versus control group (Wistar rats; result in words): no significant difference
